Data from ChEMBL document CHEMBL1201862, “PubChem BioAssay data set” (2004).
Active and inactive are the calls of the source.

What was measured:
[1] = blockers of HIV-1 envelope-mediated cell-cell fusion – cherry-pick, dose response (AID 652057); assay type: functional, cell-based
[2] = off-target signal loss in HeLa-CEM21 co-culture – HeLa F-luc CTL cells, cherry-picked, counter-screen for HIV-1 Env fusion inhibitor project, dose response (AID 652040); assay type: functional, cell-based;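 note: potency for signal decrease marking cytotoxic or nonspecific inhibition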
[3] = blockers of HIV-1 ZM109 envelope-driven cell-cell fusion – HeLa effector, CEM target cells, luciferase, cherry-pick, dose response (AID 652058); assay type: functional, cell-based;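 note: luciferase signal from HIV-1 Env mediated cell-cell fusion of effector and target cells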
[4] = reduction of Shn3 3'UTR-driven luciferase in osteoblasts – cell-based, Clone20 osteoblasts, firefly luciferase, cherry-picked, dose response (AID 624132); assay type: functional;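 note: firefly luciferase luminescence from reporter carrying the Shn3 3'UTR in osteoblasts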
[5] = non-specific 3'UTR reporter inhibition in Clone20-Shn3RL – cell-based, Renilla luciferase, cherry-picked, counter-screen for Shn3 inhibitor project, dose response (AID 624133); assay type: functional
[6] = target: COUP transcription factor 2 (Homo sapiens, UniProt P24468); assay: Luminescence-based cell-based high throughput dose response assay to identify inhibitors of COUP-TFII (NR2F2).; assay type: functional;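 note: HEK293 cells transiently cotransfected with COUP-TFII expression vector and reporter; luciferase reporter luminescence driven by COUP-TFII from the pX2-168 reporter plasmid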
COUP transcription factor 2, sequence (P24468 whole entry): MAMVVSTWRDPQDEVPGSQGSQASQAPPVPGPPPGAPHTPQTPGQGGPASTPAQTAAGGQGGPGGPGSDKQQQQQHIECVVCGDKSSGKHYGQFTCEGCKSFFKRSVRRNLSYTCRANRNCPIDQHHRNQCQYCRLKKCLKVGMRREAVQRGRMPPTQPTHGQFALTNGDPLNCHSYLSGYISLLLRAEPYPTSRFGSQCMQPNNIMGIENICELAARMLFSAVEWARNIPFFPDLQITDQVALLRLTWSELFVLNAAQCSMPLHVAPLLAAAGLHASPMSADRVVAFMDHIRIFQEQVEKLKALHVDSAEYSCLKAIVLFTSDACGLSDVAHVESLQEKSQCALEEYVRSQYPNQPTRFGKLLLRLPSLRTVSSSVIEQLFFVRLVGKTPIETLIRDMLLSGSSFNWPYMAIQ

[7] = loss of viability in HepG2 cells – cell-based, CellTiter-Glo, cherry-picked, cytotoxicity control for Shn3 inhibitor project, dose response (AID 624134); assay type: functional
[8] = HIV-1 AD8 envelope cell-cell fusion blockers – cherry-pick, dose response (AID 652062); assay type: functional, cell-based;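 note: luciferase signal from cell-cell fusion driven by HIV-1 clade B AD8 Env; potency is for inhibitors of fusion seen as a drop in luminescence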
[9] = tested on: HEK293; assay: EBV LMP1 TES2 canonical NF-kB signalling blockers – cell-based, HEK293, luciferase, cherry-pick, dose response (AID 588343); assay type: functional; conditions: Homo sapiens
[10] = toxicity toward HepG2 liver cells – cell-based, plate reader, cherry-pick, antagonist series, cytotoxicity control, dose response (AID 743416); assay type: functional
[11] = tested on: INS1; assay: INS-1E survival protection against cytokine death – cell-based, luminescence, retest, dose response (AID 449756); assay type: functional; conditions: Rattus norvegicus;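 note: cell death triggered by IL-1 beta plus TNF-alpha plus IFN-gamma mixture; protective hits raise ATP signal compared with cytokine alone wells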
[12] = blockers of bursicon-stimulated LGR2 cAMP reporter – cell-based, HEK293, CRE-luciferase reporter, cherry pick, set 2, dose response (AID 743343); assay type: functional;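 note: transfected cells were stimulated with diluted bursicon conditioned medium after compound addition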
[13] = viability loss in HEK293 cells – cell-based, plate reader, cherry-picked samples, cytotoxicity control, dose response (AID 743446); assay type: functional
[14] = A549 cell cytotoxicity, dose response, cytotoxicity control, plate reader, cherry-pick, antagonist series (AID 743412); assay type: functional, cell-based
[15] = target: T1, Trace amine-associated receptor 1 (Homo sapiens, UniProt Q96RJ0); assay: Fluorescence-based cell-based high throughput dose response assay to identify agonists of the human trace amine associated receptor 1 (TAAR1).; assay type: functional
T1 sequence (Q96RJ0 whole entry): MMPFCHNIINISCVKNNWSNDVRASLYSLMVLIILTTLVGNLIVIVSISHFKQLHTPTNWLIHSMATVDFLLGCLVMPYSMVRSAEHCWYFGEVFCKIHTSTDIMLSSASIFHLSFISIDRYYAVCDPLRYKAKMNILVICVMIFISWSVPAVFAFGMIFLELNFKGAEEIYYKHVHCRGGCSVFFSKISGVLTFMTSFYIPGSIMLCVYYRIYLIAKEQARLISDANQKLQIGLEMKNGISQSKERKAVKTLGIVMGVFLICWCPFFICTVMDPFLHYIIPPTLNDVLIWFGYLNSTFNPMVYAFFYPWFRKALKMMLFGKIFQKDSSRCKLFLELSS

[16] = cells; assay type: functional, cell-based
[17] = cells; assay type: functional, cell-based; remark: listed apart in the source
[18] = target: T1, Trace amine-associated receptor 1; assay: Counterscreen for agonists of the human trace amine associated receptor 1 (hTAAR1): Fluorescence-based cell-based high throughput dose response assay to identify hTAAR1 agonist that also desensitize TAAR1 receptor response.; assay type: functional
[19] = target: NAD-dependent protein deacylase sirtuin-5, mitochondrial (Homo sapiens, UniProt Q9NXA8); assay: sirtuin-5 deacylation blockers, concentration series – biochemical, fluorescence imaging, cherry-pick, set 5, dose response (AID 720591);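 note: desuccinylation of succinyl peptide AMC substrate read as fluorescence after trypsin release; potency of inhibitors that lower fluorescence and may act on trypsin instead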
NAD-dependent protein deacylase sirtuin-5, mitochondrial, sequence (Q9NXA8 whole entry): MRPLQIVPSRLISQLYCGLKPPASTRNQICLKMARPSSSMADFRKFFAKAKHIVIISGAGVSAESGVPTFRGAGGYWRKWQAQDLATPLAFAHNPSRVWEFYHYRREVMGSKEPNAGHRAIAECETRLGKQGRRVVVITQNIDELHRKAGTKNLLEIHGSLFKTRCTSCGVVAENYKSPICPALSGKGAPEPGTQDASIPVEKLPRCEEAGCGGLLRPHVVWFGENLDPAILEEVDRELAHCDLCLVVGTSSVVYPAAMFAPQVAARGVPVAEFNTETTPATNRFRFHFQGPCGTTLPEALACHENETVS

[20] = target: T2, Microphthalmia-associated transcription factor (Homo sapiens, UniProt O75030); assay: reducers of TRPM1 reporter luminescence, concentration series – cell-based, SK-MEL-5, cherry-picked, set 3, MITF inhibitor project, dose response (AID 493073); assay type: functional;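 note: SK-MEL-5 melanoma cells with luciferase driven by the MITF target TRPM1 promoter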
T2 sequence (O75030 whole entry): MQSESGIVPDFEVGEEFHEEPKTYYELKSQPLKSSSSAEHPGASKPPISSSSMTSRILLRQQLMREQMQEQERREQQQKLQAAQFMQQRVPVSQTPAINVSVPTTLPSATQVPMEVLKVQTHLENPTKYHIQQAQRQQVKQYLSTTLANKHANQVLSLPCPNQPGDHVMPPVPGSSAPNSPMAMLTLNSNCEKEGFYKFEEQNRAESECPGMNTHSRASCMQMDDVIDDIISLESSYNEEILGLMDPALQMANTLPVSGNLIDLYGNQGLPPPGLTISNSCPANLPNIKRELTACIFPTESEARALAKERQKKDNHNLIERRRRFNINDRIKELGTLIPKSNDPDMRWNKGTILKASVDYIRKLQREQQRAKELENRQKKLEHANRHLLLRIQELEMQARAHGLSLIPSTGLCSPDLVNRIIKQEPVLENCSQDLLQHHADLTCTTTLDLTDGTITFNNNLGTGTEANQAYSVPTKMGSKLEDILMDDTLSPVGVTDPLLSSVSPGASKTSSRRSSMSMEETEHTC

[21] = HEK-293T viability loss after treatment – luminescence, T-cell screen hits, cytotoxicity control for TCR NF-kB inhibitor project, dose response (AID 489026); assay type: functional, cell-based;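 note: cells exposed to compound about 14 hours before the viability readout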
[22] = blockade of melanocortin 4 receptor signaling – cell-based, plate reader, cherry pick, counter-screen for LGR2 antagonist project, dose response (AID 743444); assay type: functional;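 note: transfected HEK 293 cells stimulated with alpha-MSH peptide; potency of inhibitors of the alpha-MSH evoked signal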
[23] = viability loss in CEM21 cells – cell-based, CellTiter-Glo luminescence, cherry-picked, cytotoxicity control for viral fusion inhibitor project, dose response (AID 652042); assay type: functional;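 note: potency for signal decrease meaning cytotoxicity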
[24] = tested on: HEK293; assay: cells; conditions: Homo sapiens
[25] = tested on: HEK293; assay: cells; conditions: Homo sapiens; remark: listed apart in the source
[26] = target: Tyrosyl-DNA phosphodiesterase 2 (Homo sapiens, UniProt O95551); assay: potency against TDP2 phosphodiesterase activity – biochemical, epi absorbance, IC50, dose response (AID 743297)
Tyrosyl-DNA phosphodiesterase 2, sequence (O95551 whole entry): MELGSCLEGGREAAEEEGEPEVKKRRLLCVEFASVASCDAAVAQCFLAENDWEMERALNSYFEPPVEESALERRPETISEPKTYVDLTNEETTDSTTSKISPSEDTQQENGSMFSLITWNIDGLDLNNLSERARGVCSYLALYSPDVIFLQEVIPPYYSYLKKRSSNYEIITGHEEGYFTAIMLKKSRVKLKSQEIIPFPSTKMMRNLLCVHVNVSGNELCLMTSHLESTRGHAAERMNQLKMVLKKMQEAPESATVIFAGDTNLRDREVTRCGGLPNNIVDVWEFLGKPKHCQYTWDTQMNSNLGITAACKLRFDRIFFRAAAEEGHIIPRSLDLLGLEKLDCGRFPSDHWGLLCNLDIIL

[27] = viability loss in HEK293 kidney cells – cell-based, cherry-picks, set 5, cytotoxicity control, dose response (AID 1053117); assay type: functional

With COc1ccc(CNc2ncnc3ccccc23)cc1 the AC50 [1] was 36.2 µM (active), the AC50 [2] was > 70 µM (inactive) and the AC50 [3] was 24.9 µM (active). The AC50 [4] was 0.674 µM (active), the AC50 [5] was 5.4 µM (active) and the IC50 [6] was 10.7 µM (inactive). For the same compound, the AC50 [7] was 3.67 µM (active), the AC50 [8] was 5.24 µM (active) and the AC50 [9] was 33.1 µM (active).

With CC(=O)c1ccc(Nc2cc(C)nc3c(C)cc(C)cc23)cc1 the AC50 [10] was 1.9 µM (active), the AC50 [11] was 5.22 µM (active) and the AC50 [12] was 40.3 µM (active). For the same compound, the AC50 [13] was 23.9 µM (active) and the AC50 [14] was 2.54 µM (active).

For COc1ccc2cc(CN(CCc3ccccc3)Cc3nnnn3CC3CCCO3)c(O)nc2c1 (stereo unspecified), the EC50 [15] was 4.42 µM (active), the IC50 [16] was > 29.9 µM (inactive) and the EC50 [17] was > 29.9 µM (inactive). For the same compound, the IC50 [18] was 8.83 µM (active).

For CC(C)(C)NC(=O)CSc1nc2cccnc2n1C1CCCCC1, the AC50 [19] was > 30 µM (inactive).

For CCn1c(C)cc(C(=O)CN2C(=O)c3ccccc3S2(=O)=O)c1C, the AC50 [1] was 2.09 µM (active), the AC50 [20] was 1.99 µM (active) and the AC50 [2] was 4.71 µM (active). For the same compound, the AC50 [3] was 7.25 µM (active), the IC50 [21] was > 80 µM (inactive) and the AC50 [22] was 1.16 µM (active). The AC50 [12] was 1.46 µM (active) and the AC50 [8] was 0.358 µM (active).

In the case of CC(=O)Nc1ccc(N(CC(O)Cn2c3ccccc3c3ccccc32)S(=O)(=O)c2ccc(C)cc2)cc1 (stereo unspecified), the AC50 [1] is reported as 0.507 µM (active), the AC50 [23] is reported as 28.4 µM (active) and the AC50 [2] is reported as 1.6 µM (active). The AC50 [3] was 0.558 µM (active), the EC50 [24] was > 59.7 µM (inactive) and the EC50 [25] was > 59.7 µM (inactive). The AC50 [8] was 2.8 µM (active).

With COC1=C(N2CCOCC2)C(=O)c2ccccc2C1=O the IC50 [26] was 77.2 µM (inactive).

With C=CCC[C@H](Cc1ccc(F)cc1)C(=O)OC[C@H](Cc1c[nH]c2ccccc12)NC(=O)[C@@H](CC=C)CC(=O)N[C@@H](CO)Cc1ccccc1 the AC50 [27] was > 52 µM (inactive).
